Experimental data reported in US20020188022A1, “Methods for modulation, stimulation, and inhibition of glutamate reuptake” (Annovis. Inc., priority 2000, published 2002).
Where two headings read alike, the source gives them in different places.

How the values were obtained:
Analgesic effect test = assay type: in vivo; conditions: compared with 1
Description: (§1) The ester, carbonate, and amine bond in any prodrug forms of compounds identified by the disclosed method can be readily cleaved in vivo. Therefore, prodrug compositions can be hydrolyzed to the corresponding acid forms in plasma.

[1] = Bioavailability and half-life of prodrug; assay type: in vivo; conditions: compared with 1
Description: as §1

[2] = Hydrolysis of prodrug to the acid form; assay type: in vitro ADME
Description: as §1

[3] = biological target: T1, Glial Glutamate Transporter (GLAST and GLT1); assay: Binding of [3H]-4MG to rat forebrain membrane homogenates in Na+-containing HEPES buffer; conditions: for Displacement of 4MG binding: at or above 100 μM, FIG. 5
T1 construct: Bmax; other: 20 nM [3H]-4MG, 4° C; KD
Procedure: (§2) Forebrain tissue from female Sprague Dawley rats was homogenized in HEPES buffer containing Na^+, and membranes were washed twice in the same buffer. Binding experiments were also performed in this buffer. Initial studies determined appropriate parameters for time (15 minutes incubation at 4° C.) and drug concentration (20 nM [^3H]-4MG) to be used in subsequent experiments. Following incubation of [^3H]-4MG with or without other compounds, binding was terminated by rapid filtration through Whatman GF/B filter discs and washing 3 times with buffer using a Brandel cell harvester. Binding was determined by scintillation spectrometry. A full range of association, dissociation, saturation and inhibition studies was performed over varying incubation times (up to 60 min). Data were analysed using computer-assisted curve fitting. Values are expressed as mean of at least triplicate determinations and multiple experiments.
(§3) A full range of association, dissociation, saturation and inhibition studies was performed over varying incubation times (up to 60 min). Data were analysed using computer-assisted curve fitting. Values cited are expressed as mean of at least triplicate determinations and multiple experiments.

[4] = tested on: Glial Glutamate Transporter (GLAST and GLT1); assay: as above; conditions: FIG. 5
Procedure: as §2, §3

[5] = 20 nM [3H]-4MG, 4° C., read-out: Displacement of 4MG binding to rat brain membrane homogenates, IC50

## COC(=O)[C@H](C)C[C@H](N)C(=O)OC [compound 2, (2S,4R)-4-methyl glutamic acid dimethyl ester]
Analgesic effect test
  Analgesic effect: analgesic effect similar to 1
[1]
  Bioavailability: enhanced bioavailability
  Half-life: longer half-life
[2]
  Hydrolysis to (2S,4R)-4-methyl glutamic acid (1): readily hydrolyzed

## C[C@H](C[C@H](N)C(=O)O)C(=O)O [4MG, (2S,4R)-4-methylglutamate]
[3]
  Kd: 5.4 µM
[3]; read-out: Displacement of 4MG binding to rat brain membrane homogenates, IC50
  IC50: 6.7 µM

## Cc1onc(O)c1CC(N)C(=O)O (stereo not drawn) [AMPA, α-amino-3-hydroxy-5-methyl-4-isoxazolepropionate]
[3]
  Displacement of 4MG binding: failed to significantly displace

## N[C@H](C(=O)O)[C@H]1C[C@H]1C(=O)O [CCG-III, (2S,3S,4R)-2-(carboxycyclopropyl)glycine]
[3]; [5]
  IC50: 1.2 µM

## N[C@@H](Cn1cc(I)c(=O)[nH]c1=O)C(=O)O [IW, iodowillardine]
[4]
  Effect on 4MG and/or D-aspartate binding to GluTs: failed to affect

## N[C@@H](Cn1cc(F)c(=O)[nH]c1=O)C(=O)O [FW, fluorowillardiine]
[3]
  Displacement of 4MG binding: failed to significantly displace

## NCCCC(=O)O [GABA, γ-aminobutyric acid]
[4]
  Effect on 4MG and/or D-aspartate binding to GluTs: failed to affect

## CC(C)(C)c1o[nH]c(=O)c1CC(N)C(=O)O (stereo not drawn) [ATPA]
[4]
  Effect on 4MG and/or D-aspartate binding to GluTs: failed to affect

## NCC(=O)O [GLY, glycine]
[4]
  Effect on 4MG and/or D-aspartate binding to GluTs: failed to affect

## N[C@@H](CCC(=O)O)C(=O)O [glutamate, L-glutamic acid]
[3]; [5]
  IC50: 6.1 µM

## N[C@@H](CC(=O)O)C(=O)O [L-aspartate]
[3]; [5]
  IC50: 7.5 µM

## L-anti-endo-3,4-methanopyrrolidine dicarboxylate [MPDC]
[3]; [5]
  IC50: 4 µM

## N[C@@H](COS(=O)(=O)O)C(=O)O [SOS, L-serine-O-sulphate]
[3]; [5]
  IC50: 40 µM

## CN[C@H](CC(=O)O)C(=O)O [NMDA, N-methyl-D-aspartate]
[3]
  Displacement of 4MG binding: failed to significantly displace

## C[C@H](C[C@H](N)C(=O)O)C(=O)O [SYM 2081]
[3]; Table 2, read-out: Inhibition of Binding of [3H]-4MG to Glial Glutamate Transporter, IC50
  IC50: 29 µM

## N[C@H](CC(=O)O)C(=O)O [D-aspartate]
[3]; [5]
  IC50: 10.9 µM

## O=C(O)[C@H]1CN[C@H](C(=O)O)C1 [PDC, L-trans-pyrrolidine-2,4-dicarboxylate]
[3]; [5]
  IC50: 2.9 µM
